{"source": "paper PMC4773034", "about": "(Journal of biomolecular screening, 2012)"}
{"target": "EndA(H160G) (Streptococcus pneumoniae serotype 4, UniProt P0A3S3, H160G)", "assay": "PicoGreen nuclease assay", "assay_type": "biochemical", "settings": "25 mM imidazole, 30 min reaction, top concentration 30 µM"}
{"smiles": "NC(Cc1cc(O)c(O)cc1O)C(=O)O", "note": "(racemic) [6-hydroxy-DL-DOPA]", "IC50 (stated in words)": "nanomolar range"}
{"smiles": "CC(C)c1ccc2c(c1)c(SC(C)(C)C)c(CC(C)(C)C(=O)[O-])n2Cc1ccc(Cl)cc1.[Na+]", "note": "[MK-886]", "IC50 (stated in words)": "nanomolar range"}
{"smiles": "O=c1c(O)c(-c2cc(O)c(O)c(O)c2)oc2cc(O)cc(O)c12", "note": "[Myricetin]", "IC50 (stated in words)": "nanomolar range"}
